Experimental findings from ChEMBL document CHEMBL4680193, “Isoindoline scaffold-based dual inhibitors of HDAC6 and HSP90 suppressing the growth of lung cancer in vitro and in vivo” (Eur J Med Chem, 2020) are described below.

The source made the active and inactive calls. No cut-off for these calls is given here.

The subject of the first experiment is A549. Briefly: Growth inhibition of human A549 cells incubated for 48 hrs by SRB assay. The experiment is classed as functional. Conditions: Homo sapiens, A549. (In SRB staining, fixed cells bind dye roughly in proportion to their protein.)
What is called GI50 is the concentration at which growth is held to half of that of the control. Low readings indicate greater sensitivity of the cells, high ones lower sensitivity of the cells. In turn, `CC(C)c1cc(C(=O)N2Cc3ccc(NC(=O)CCCC(=O)NO)cc3C2)c(O)cc1O` came in with a GI50 of more than 10000 nM.

`CC(C)c1cc(C(=O)N2Cc3ccc(/C=C/C(=O)NO)cc3C2)c(O)cc1O` came in with a GI50 of 2740 nM.

As to `CC(C)c1cc(C(=O)N2Cc3ccc(NCc4ccc(C(=O)NO)cc4)cc3C2)c(O)cc1O`, the GI50 worked out at 370 nM.

In the case of `CC(C)c1cc(C(=O)N2Cc3ccc(NC(=O)CCC(=O)NO)cc3C2)c(O)cc1O`, the GI50 was found to be 830 nM.

In the next experiment the test system is NCI-H1975. Kind of experiment: cells. The experiment is classed as functional. Conditions: Homo sapiens, time 48 hrs.
In turn, `CC(C)c1cc(C(=O)N2Cc3ccc(NC(=O)CCCC(=O)NO)cc3C2)c(O)cc1O` came in with a GI50 of more than 10000 nM.

In turn, `CC(C)c1cc(C(=O)N2Cc3ccc(/C=C/C(=O)NO)cc3C2)c(O)cc1O` yielded a GI50 of 32000 nM.

The compound `CC(C)c1cc(C(=O)N2Cc3ccc(NCc4ccc(C(=O)NO)cc4)cc3C2)c(O)cc1O` came in with a GI50 of 130 nM.

Regarding `CC(C)c1cc(C(=O)N2Cc3ccc(NC(=O)CCC(=O)NO)cc3C2)c(O)cc1O`, it took 39000 nM to inhibit growth by half (GI50).

Another experiment has as its target Heat shock protein HSP 90-alpha (Homo sapiens, UniProt P07900). Kind of experiment: Inhibition of HSP90a (unknown origin).
Settings: not given
Broadly, the IC50 is the point on the concentration scale where inhibition reaches its midpoint. Compound `CC(C)c1cc(C(=O)N2Cc3ccc(NC(=O)CCCC(=O)NO)cc3C2)c(O)cc1O` came in with an IC50 of 136 nM.

Compound `CC(C)c1cc(C(=O)N2Cc3ccc(/C=C/C(=O)NO)cc3C2)c(O)cc1O` displayed an IC50 of 104 nM.

`CC(C)c1cc(C(=O)N2Cc3ccc(NCc4ccc(C(=O)NO)cc4)cc3C2)c(O)cc1O` returned a half-inhibitory concentration (IC50) of 66 nM.

`CC(C)c1cc(C(=O)N2Cc3ccc(NC(=O)CCC(=O)NO)cc3C2)c(O)cc1O` registered an IC50 of 123 nM.

For another experiment, the target named is Histone deacetylase.
Assay: not given
Type of experiment: tissue-based, Homo sapiens. Conditions: hela.
On to `CC(C)c1cc(C(=O)N2Cc3ccc(NC(=O)CCCC(=O)NO)cc3C2)c(O)cc1O`, for which the IC50 was more than 1000 nM.

As for `CC(C)c1cc(C(=O)N2Cc3ccc(/C=C/C(=O)NO)cc3C2)c(O)cc1O`, the IC50 is on record as more than 1000 nM.

Consider `CC(C)c1cc(C(=O)N2Cc3ccc(NCc4ccc(C(=O)NO)cc4)cc3C2)c(O)cc1O`, for which the IC50 is listed as more than 1000 nM.

With `CC(C)c1cc(C(=O)N2Cc3ccc(NC(=O)CCC(=O)NO)cc3C2)c(O)cc1O`, the IC50 is more than 1000 nM.

In another experiment the target is Histone deacetylase 1 (Homo sapiens, UniProt Q13547). Briefly: Inhibition of recombinant human C-terminal FLAG-His-tagged HDAC1 (1 to 482 residues) expressed in Sf21 cells using RHK-K(Ac)-AMC as substrate incubated for 60 mins by fluorimetry analysis.
Histone deacetylase 1, sequence (Q13547 whole entry, the tested form may be a part): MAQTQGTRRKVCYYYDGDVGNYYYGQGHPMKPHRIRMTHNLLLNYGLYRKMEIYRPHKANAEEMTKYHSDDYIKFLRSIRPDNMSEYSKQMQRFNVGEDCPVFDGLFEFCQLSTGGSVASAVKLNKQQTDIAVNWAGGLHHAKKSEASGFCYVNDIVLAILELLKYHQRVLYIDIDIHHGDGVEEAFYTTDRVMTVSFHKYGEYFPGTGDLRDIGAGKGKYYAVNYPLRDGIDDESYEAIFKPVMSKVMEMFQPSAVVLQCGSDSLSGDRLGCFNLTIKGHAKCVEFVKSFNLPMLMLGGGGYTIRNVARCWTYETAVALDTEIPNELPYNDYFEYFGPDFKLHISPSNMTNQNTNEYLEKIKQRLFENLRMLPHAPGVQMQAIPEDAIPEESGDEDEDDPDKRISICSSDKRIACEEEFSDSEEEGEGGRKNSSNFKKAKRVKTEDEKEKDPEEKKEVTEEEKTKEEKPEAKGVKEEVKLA
Settings: not given
`CC(C)c1cc(C(=O)N2Cc3ccc(NC(=O)CCCC(=O)NO)cc3C2)c(O)cc1O`: the IC50 was 7430 nM.

Regarding `CC(C)c1cc(C(=O)N2Cc3ccc(/C=C/C(=O)NO)cc3C2)c(O)cc1O`, the IC50 is 3150 nM.

In the case of `CC(C)c1cc(C(=O)N2Cc3ccc(NCc4ccc(C(=O)NO)cc4)cc3C2)c(O)cc1O`, the half-inhibitory concentration (IC50) is more than 10000 nM.

The target in another experiment is Histone deacetylase 3 (Homo sapiens, UniProt O15379).
Histone deacetylase 3, sequence (O15379 whole entry): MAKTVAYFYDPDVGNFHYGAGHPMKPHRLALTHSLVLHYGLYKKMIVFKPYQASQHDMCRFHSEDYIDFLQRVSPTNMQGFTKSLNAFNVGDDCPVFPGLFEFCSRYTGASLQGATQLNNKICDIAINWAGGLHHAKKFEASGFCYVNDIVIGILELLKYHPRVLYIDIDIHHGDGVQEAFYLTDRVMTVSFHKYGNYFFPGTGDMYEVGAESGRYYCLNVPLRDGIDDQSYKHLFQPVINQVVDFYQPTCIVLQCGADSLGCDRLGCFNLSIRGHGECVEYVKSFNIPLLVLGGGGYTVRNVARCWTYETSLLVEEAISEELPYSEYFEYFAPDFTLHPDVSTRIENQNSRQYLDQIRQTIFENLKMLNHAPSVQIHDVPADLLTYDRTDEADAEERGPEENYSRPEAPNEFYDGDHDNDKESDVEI
Assay: not given
Settings: not given
As for `CC(C)c1cc(C(=O)N2Cc3ccc(NC(=O)CCCC(=O)NO)cc3C2)c(O)cc1O`, half-maximal inhibition (IC50) required 4410 nM.

For `CC(C)c1cc(C(=O)N2Cc3ccc(/C=C/C(=O)NO)cc3C2)c(O)cc1O`, the midpoint of inhibition, the IC50, lay at 3990 nM.

Consider `CC(C)c1cc(C(=O)N2Cc3ccc(NCc4ccc(C(=O)NO)cc4)cc3C2)c(O)cc1O`, for which it took 9850 nM to reach half-maximal inhibition (IC50).

Another experiment deals with T1, Protein deacetylase HDAC6 (Homo sapiens, UniProt Q9UBN7).
T1 sequence (Q9UBN7 whole entry): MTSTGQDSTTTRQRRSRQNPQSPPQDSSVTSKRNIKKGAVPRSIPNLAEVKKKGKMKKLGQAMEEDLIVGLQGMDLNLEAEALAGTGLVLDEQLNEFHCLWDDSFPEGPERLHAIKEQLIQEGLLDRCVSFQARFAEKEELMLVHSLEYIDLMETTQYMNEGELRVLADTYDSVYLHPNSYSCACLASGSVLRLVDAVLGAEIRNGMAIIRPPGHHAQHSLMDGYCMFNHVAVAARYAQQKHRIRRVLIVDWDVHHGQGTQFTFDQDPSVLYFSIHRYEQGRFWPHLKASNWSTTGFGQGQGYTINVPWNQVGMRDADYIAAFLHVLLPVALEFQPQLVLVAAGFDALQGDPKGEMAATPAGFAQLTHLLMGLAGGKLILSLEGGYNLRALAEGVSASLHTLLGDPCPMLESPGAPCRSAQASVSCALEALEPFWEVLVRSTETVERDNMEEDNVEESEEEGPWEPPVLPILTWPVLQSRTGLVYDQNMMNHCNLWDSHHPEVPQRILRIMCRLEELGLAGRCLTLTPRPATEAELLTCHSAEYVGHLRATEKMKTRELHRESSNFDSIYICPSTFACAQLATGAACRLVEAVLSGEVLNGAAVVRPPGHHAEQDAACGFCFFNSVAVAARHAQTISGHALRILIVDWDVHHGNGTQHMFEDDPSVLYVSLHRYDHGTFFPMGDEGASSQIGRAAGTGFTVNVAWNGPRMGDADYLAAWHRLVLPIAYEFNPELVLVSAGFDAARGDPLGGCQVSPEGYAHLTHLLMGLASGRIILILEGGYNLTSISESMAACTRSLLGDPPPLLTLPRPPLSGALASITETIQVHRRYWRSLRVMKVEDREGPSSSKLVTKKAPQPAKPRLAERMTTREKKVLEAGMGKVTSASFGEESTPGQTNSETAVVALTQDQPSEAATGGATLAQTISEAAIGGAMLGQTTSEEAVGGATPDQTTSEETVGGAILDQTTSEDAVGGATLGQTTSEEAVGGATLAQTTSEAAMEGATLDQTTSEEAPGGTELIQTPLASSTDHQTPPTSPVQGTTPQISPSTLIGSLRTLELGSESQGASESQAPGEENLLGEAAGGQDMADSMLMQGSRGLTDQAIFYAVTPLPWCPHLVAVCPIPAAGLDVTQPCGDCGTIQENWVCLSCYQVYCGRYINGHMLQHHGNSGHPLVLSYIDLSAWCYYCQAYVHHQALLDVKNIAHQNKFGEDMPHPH
Kind of experiment: Inhibition of recombinant human HDAC6 using RHK-K(Ac)-AMC as substrate by fluorescence based assay.
Settings: not given
Take `CC(C)c1cc(C(=O)N2Cc3ccc(NC(=O)CCCC(=O)NO)cc3C2)c(O)cc1O`: the IC50 was found to be 68.6 nM.

Regarding `CC(C)c1cc(C(=O)N2Cc3ccc(/C=C/C(=O)NO)cc3C2)c(O)cc1O`, the IC50 worked out at 303 nM.

Turning to `CC(C)c1cc(C(=O)N2Cc3ccc(NCc4ccc(C(=O)NO)cc4)cc3C2)c(O)cc1O`, the IC50 is 33.3 nM.

Turning to `CC(C)c1cc(C(=O)N2Cc3ccc(NC(=O)CCC(=O)NO)cc3C2)c(O)cc1O`, the IC50 was more than 10000 nM.

For the next experiment, the target named is T2, Histone deacetylase 8 (Homo sapiens, UniProt Q9BY41).
T2 sequence (Q9BY41 whole entry): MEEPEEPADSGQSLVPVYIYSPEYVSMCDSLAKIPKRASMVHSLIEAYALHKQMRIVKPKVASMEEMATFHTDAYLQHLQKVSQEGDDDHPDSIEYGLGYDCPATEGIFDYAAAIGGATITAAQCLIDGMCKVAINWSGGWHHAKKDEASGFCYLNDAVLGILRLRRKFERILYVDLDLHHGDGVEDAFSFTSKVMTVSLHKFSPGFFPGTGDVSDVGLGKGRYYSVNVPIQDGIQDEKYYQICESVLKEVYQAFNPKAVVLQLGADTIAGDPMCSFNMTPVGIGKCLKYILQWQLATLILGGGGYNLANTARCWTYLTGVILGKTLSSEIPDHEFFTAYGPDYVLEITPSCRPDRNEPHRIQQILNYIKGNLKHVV
Kind of experiment: Inhibition of recombinant human HDAC8 using RHK-K(Ac)-AMC as substrate by fluorescence based assay.
Settings: not given
Regarding `CC(C)c1cc(C(=O)N2Cc3ccc(/C=C/C(=O)NO)cc3C2)c(O)cc1O`, the IC50 was determined as 675 nM.

`CC(C)c1cc(C(=O)N2Cc3ccc(NCc4ccc(C(=O)NO)cc4)cc3C2)c(O)cc1O`: the concentration for half-maximal inhibition (IC50) was found to be 420 nM.

`CC(C)c1cc(C(=O)N2Cc3ccc(NC(=O)CCC(=O)NO)cc3C2)c(O)cc1O`: the IC50 is 7320 nM.

For a further experiment, the species on record is Homo sapiens. Briefly: Selectivity index, ratio of IC50 for recombinant human C-terminal FLAG-His-tagged HDAC1 (1 to 482 residues) expressed in Sf21 cells to IC50 for recombinant human HDAC6.
Settings: not given
With `CC(C)c1cc(C(=O)N2Cc3ccc(NC(=O)CCCC(=O)NO)cc3C2)c(O)cc1O`, the Ratio IC50 came to 108.

Regarding `CC(C)c1cc(C(=O)N2Cc3ccc(/C=C/C(=O)NO)cc3C2)c(O)cc1O`, the Ratio IC50 is 10.4.

With `CC(C)c1cc(C(=O)N2Cc3ccc(NCc4ccc(C(=O)NO)cc4)cc3C2)c(O)cc1O`, the Ratio IC50 is more than 300.

For another experiment, the species on record is Homo sapiens. Kind of experiment: Selectivity index, ratio of IC50 for recombinant human HDAC3 to IC50 for recombinant human HDAC6.
Settings: not given
Regarding `CC(C)c1cc(C(=O)N2Cc3ccc(NC(=O)CCCC(=O)NO)cc3C2)c(O)cc1O`, the Ratio IC50 turned out to be 64.3.

As for `CC(C)c1cc(C(=O)N2Cc3ccc(/C=C/C(=O)NO)cc3C2)c(O)cc1O`, the Ratio IC50 worked out at 13.2.

As to `CC(C)c1cc(C(=O)N2Cc3ccc(NCc4ccc(C(=O)NO)cc4)cc3C2)c(O)cc1O`, the Ratio IC50 was 296.

The species entered for another experiment is Homo sapiens. Briefly: Selectivity index, ratio of IC50 for recombinant human HDAC8 to IC50 for recombinant human HDAC6.
Settings: not given
As for `CC(C)c1cc(C(=O)N2Cc3ccc(/C=C/C(=O)NO)cc3C2)c(O)cc1O`, the Ratio IC50 was determined as 2.2.

On to `CC(C)c1cc(C(=O)N2Cc3ccc(NCc4ccc(C(=O)NO)cc4)cc3C2)c(O)cc1O`, for which the Ratio IC50 stood at 12.6.

Another experiment deals with T3, Heat shock protein HSP90 (Homo sapiens) (UniProt P07900+P08238). Briefly: Inhibition of HSP90 in human NCI-H1975 cells assessed as decrease in Akt Ser473 phosphorylation at 1 to 3 uM measured after 24 hrs by Western blot analysis. Type of experiment: cell-based. Conditions: dose 1-3 µM.
On to `CC(C)c1cc(C(=O)N2Cc3ccc(NCc4ccc(CN5CCN(C)CC5)cc4)cc3C2)c(O)cc1O`, for which the inhibition entry was “Active”.

Another experiment addresses T3, Heat shock protein HSP90 (Homo sapiens). Briefly: Inhibition of HSP90 in human NCI-H1975 cells assessed as decrease in STAT3 Tyr705 phosphorylation at 1 to 3 uM measured after 24 hrs by Western blot analysis. The experiment is classed as cell-based. Conditions: dose 1-3 µM.
On to `CC(C)c1cc(C(=O)N2Cc3ccc(NCc4ccc(CN5CCN(C)CC5)cc4)cc3C2)c(O)cc1O`, for which the inhibition result was “Active”.

The subject of a further experiment is NCI-H1975. Briefly: Antitumor activity against human NCI-H1975 cells xenografted in BALB/c mouse assessed as reduction in tumor growth at 20 mg/kg, ip administered for 2 weeks and measured after 2 week relative to control. Type of experiment: functional. Conditions: 336 h, read-out: TGI. For orientation: Xenograft models place foreign cells or tissue in a host animal.
In the case of `CN(C)C/C=C/C(=O)Nc1cc2c(Nc3ccc(F)c(Cl)c3)ncnc2cc1O[C@H]1CCOC1` [AFATINIB], the inhibition in vivo at 20 mg/kg is 63.8%.
